Results taken from patent publication US5795860A, “Analogs for specific oligosaccharide-protein interactions and uses therefor” (Repligen Corporation, priority 1994, dated 1998).
Each block holds one compound with its values, some of them ahead of it.

Experiments:
[1] = system: "Glyceptor" sequence-effector molecule interactions; test: interference with "Glyceptor" sequence-effector molecule interactions; type: binding
[2] = affinity coelectrophoresis of ELQ-IL-8 with heparan sulfate; type: binding; conditions: compared with native IL-8
[3] = affinity coelectrophoresis of ELQ-IL-8 with heparin; type: binding; conditions: compared with native IL-8
Source text: Commercial heparin (porcine mucosa, Sigma Biochemical) is radioactively labeled by first incorporating tyramine at the reducing end of the chains and then introducing radioactive iodine using the chloramine T reaction, a procedure well known in the art. The heparin is size fractionated on a Sephadex G-100 column (Pharmacia) and the last 10% of the heparin to elute is selected and utilized for the labeling. The labeled low molecular weight heparin is then bound to varying concentrations of IL-8 under equilibrium conditions using the technique of affinity coelectrophoresis, as described by Lee and Lander, Proc. Nat. Acad. Sci., U.S.A. (1991) 88, 2768-2772. Briefly, a horizontal 1% agarose gel is poured, using low melting point agarose, that contains nine rectangular wells of equal dimensions (about 3×10 mm). The buffer used comprises 125 mM sodium acetate, 50 mM MOPSO, pH 7.0. 0.5% 3-[3-cholamidopropyl) dimethylammonio]-1-propanesulfonate (CHAPS) may be used in the buffer to prevent adventitious binding of protein to vessel walls. The wells in the horizontal gel are subsequently filled with a requisite amount of 1% agarose which contains varying concentrations of IL-8 ranging from about 80 nM up to about 80 μM. The IL-8 may be produced by recombinant means as is well known in the art or may alternatively be produced as a synthetic peptide. […]

neutrophils = test: activation or attraction of neutrophils; type: cell-based
[4] = heparin-agarose column, NaCl gradient elution; type: binding; conditions: NaCl gradient 0.125M up to 1M; 50 mM Tris
Procedure: A mutant IL-8 gene is synthesized in which the ELR sequence at positions 4-6 (Seq. ID No. 1) is modified to glu-leu-gln (ELQ). The modified gene is expressed in E. coli by standard techniques well known to those skilled in the art and the protein product is extracted from the lysed cell pellet with 6M guanidine-HCl. The extract is dialyzed against 50 mM Tris, 0.125M NaCl and passed over a heparin-agarose column. […] The mutant chemokine is eluted from the column at about 0.6-0.7M salt.

[5] = system: "Glyceptor" sequences on post-capillary endothelium of human dermal tissue; test: binding of 125I-labeled chemokine to human dermal tissue, microscopic autoradiography; conditions: for binding of 125I-labeled chemokine to vasculature / post-capillary endothelium: microscopic autoradiography
Procedure: A sample of human dermal tissue of about 1 mm^3 is incubated with ^125 I-labeled human IL-8 as described in the art (see, e.g., Rot, A. (1992) Cytokine 4, 347, the disclosure of which is incorporated herein by reference).

IL-8 = IL-8 mediated inflammation, influx of polymorphonuclear leukocytes into the peritoneal cavity; type: in vivo, mouse; conditions: protamine chloride 100-250 mg i.v. (tail vein), IL-8 i.p.
Procedure: Typically about 50-100 μl of a sample of 1-2 μg of HAHBS suspended in phosphate buffered saline (PBS) or alternatively an equivalent amount of PBS alone is injected into the tail vein of a mouse at the same time that 1 μg of IL-8 is introduced into the peritoneal cavity. After 3 hours the peritoneal cavity is lavaged and the infiltrated cells are counted.
After 3 hours the peritoneal cavity is lavaged and the infiltrated cells are counted.
Typically a dose of 100-250 mg is suspended in PBS and injected into the tail vein of the mice. IL-8 is again injected into the peritoneal cavity.

Compound: Cc1ccc(C(=O)Nc2ccc(S(=O)(=O)O)c3cc(S(=O)(=O)O)cc(S(=O)(=O)O)c23)cc1NC(=O)c1cccc(NC(=O)Nc2cccc(C(=O)Nc3cc(C(=O)Nc4ccc(S(=O)(=O)O)c5cc(S(=O)(=O)O)cc(S(=O)(=O)O)c45)ccc3C)c2)c1 [suramin]
interference with "Glyceptor" sequence-effector molecule interactions [1]: interferes with "Glyceptor" sequence-effector molecule interactions

binding of labeled native IL-8 to vasculature in presence of ELQ-IL-8 ([5]; 10 fold excess over radiolabeled native IL-8, ex vivo): substantially reduced
Compound: ELQ-IL-8: mutant IL-8 in which the ELR sequence at positions 4-6 (Seq. ID No. 1) is modified to glu-leu-gln (ELQ)
binding to heparan sulfate [2]: behaves in a similar fashion to native IL-8 | binding to heparin [3]: behaves in a similar fashion to native IL-8 | activation or attraction of neutrophils (neutrophils): not able to activate or attract neutrophils | salt concentration eluting from heparin-agarose column [4]: 0.6 to 0.7 M | binding of 125I-labeled chemokine to vasculature / post-capillary endothelium [5]: Binding occurs in the same pattern as observed with native IL-8

Compound: IL-8: 125I-labeled human IL-8
binding of 125I-labeled chemokine to vasculature / post-capillary endothelium [5]: binds preferentially to certain regions of the vasculature

Compound: protamine chloride
toxicity (toxicity of protamine): generally toxic agent | inhibition of neutrophil influx (IL-8): significant inhibition of neutrophil influx
